From US9452225B2, “GLP-1 prodrugs” (Novo Nordisk A/S, priority 2012, dated 2016)
Where two headings read alike, the source gives them in different places. Numbered stars: 1 amine (or outer) side, 2 acyl side, 3 side chain; on linkers, the order of the positions; unused ones are H or OH. Side chains are listed from the residue outwards. Peptide text beside a SMILES is read from it. * marks the point of attachment. Decanoyl(10-(4-HOOC-PhO)) = O=C(O)c1ccc(OCCCCCCCCCC(=O)*)cc1; Lactoyl(3-(imidazol-4-yl)) = O=C([C@@H](O)Cc1c[nH]cn1)*; γGlu = O=C(O)[C@H](CCC(=O)[*:2])N[*:1]; AEEA = NCCOCCOCC(=O)O

Legend:
human GLP-1 receptor = biological target: T1, human GLP-1 receptor (Homo sapiens, UniProt P43220); assay: In vitro potency, AlphaScreen cAMP assay on membranes; format: biochemical; details: cAMP formation, membranes of BHK467-12A cells
T1 construct: expressed in transfected cells; host or cells: BHK cells, clone FCW467-12A (parent line BHKTS13), membranes
Procedure: The purpose of this example is to test the activity, or potency, in vitro of, for example, the GLP-1 parent drugs of the prodrugs of the invention.
Purified plasma membranes from a stable transfected cell line, BHK467-12A (tk-ts13), expressing the human GLP-1 receptor were stimulated with the GLP-1 drug in question, and the potency of cAMP production was measured using the AlphaScreen™ cAMP Assay Kit from Perkin Elmer Life Sciences. The basic principle of The AlphaScreen Assay is a competition between endogenous cAMP and exogenously added biotin-cAMP. The capture of cAMP is achieved by using a specific antibody conjugated to acceptor beads.
A stable transfected cell line and a high expressing clone were selected for screening. The cells were grown at 5% CO2 in DMEM, 10% FCS, 1% Pen/Strep (Penicillin/Streptomycin) and preferably 0.5 (alternatively 1.0 mg/ml) of the selection marker G418.
Cells at approximate 80% confluence were washed twice with PBS and harvested with Versene (aqueous solution of the tetrasodium salt of ethylenediaminetetraacetic acid), centrifuged 5 min at 1000 rpm and the supernatant removed. The additional steps were all made on ice. The cell pellet was homogenised by the Ultrathurax for 20-30 s in 10 ml of Buffer 1 (20 mM Na-HEPES, 10 mM EDTA, pH=7.4), centrifuged 15 min at 20,000 rpm and the pellet resuspended in 10 ml of Buffer 2 (20 mM Na-HEPES, 0.1 mM EDTA, pH=7.4). The suspension was homogenised for 20-30 s and centrifuged 15 min at 20,000 rpm. Suspension in Buffer 2, homogenisation and centrifugation was repeated once and the membranes were resuspended in Buffer 2. The protein concentration was determined and the membranes stored at −80° C. until use.
The assay was performed in flat-bottom 96-well plates (Costar cat. no: 3693). The final volume per well was 50 μl.
AlphaScreen cAMP Assay Kit from Perkin Elmer Life Sciences (cat. No: 6760625M); containing Anti-cAMP Acceptor beads (10 U/μl), Streptavidin Donor beads (10 U/μl) and Biotinylated-cAMP (133 U/μl). […]

[1] = biological target: T2, Dipeptidyl peptidase-4 (DPP-IV) (Homo sapiens, UniProt P27487); assay: Resistance to DPP-IV degradation; format: in vitro ADME; details: for half-life: recombinant dipeptidyl peptidase-4 (DPP-IV), pH 7.4, incubation with DPP-IV, 37° C.; for In (concentration) of parent GLP-1 peptide drug: DPP-IV incubation 37° C.
T2 construct: purchased R&D Systems 1180-SE
Procedure: The purpose of this experiment is to determine the degradation by Dipeptidyl peptidase-4 (DPP-IV) of the parent drugs of the prodrugs of the invention.
The stability of the parent GLP-1 drug of Example B2.1 was tested as described below.
HEPES Buffer (50 mM HEPES Buffer with 0.005% Tween20, pH 7.4)
10 ml 1 M HEPES+100 μl 10% Tween20 adjusted to pH 7.4 and diluted with MilliQ water ad 200 mL
1.0 mM in HEPES buffer 0.1% BSA (Sigma cat. no. A9418)
1.0 mM in hepes buffer pH 7.4
DPP-IV was Recombinant Dipeptidyl Peptidase, R&D Systems, cat no. 1180-SE
50 μl of DPP-IV (0.2 mg/mL), 25 mM MES, 0.7 M NaCl, pH 5.0
Add 200 μl 25 mM TRIS pH 8.0 to Stock vial (DPP-IV concentration 40 μg/mL). Just before use: 210 μl (40 μg/ml) is added 210 μl 50 mM HEPES (DPP-IV concentration 20 μg/mL)
Minimum 30 min, 37° C. with 600 μl 0.1% OVAlbumin. Then left overnight at 4° C. and washed times with 50 mM HEPES.
Minimum 150 min with HEPES buffer at 37° C.
The reactions were terminated by moving 25 μl of the sample into 150 μl cooled 1% TFA in EtOH. Samples were collected in a v-shaped 96-well plate (polypropylene, Costar 3957), (Cat no. cci-3957)). Samples were sealed and kept on ice until analyses.
Samples were diluted 5 times in 50% acetonitrile (1% formic acid) (20 μL+80 μL) and analysed with UPLC-MS.
The amounts of parent GLP-1 drug and DPP-IV cleaved drug were measured from the total ion counts and T½ was determined from a linear fit to the curve of ln (% parent GLP-1 drug) (Y) as a function of time (t), as follows: Y(t)=÷αt+k Math 3 T½=ln 2/α Math 4 T½ (÷BSA): 3466 min T½ (+0.001% BSA): 2311 min

T2 sequence (P27487 29-766 limits assumed): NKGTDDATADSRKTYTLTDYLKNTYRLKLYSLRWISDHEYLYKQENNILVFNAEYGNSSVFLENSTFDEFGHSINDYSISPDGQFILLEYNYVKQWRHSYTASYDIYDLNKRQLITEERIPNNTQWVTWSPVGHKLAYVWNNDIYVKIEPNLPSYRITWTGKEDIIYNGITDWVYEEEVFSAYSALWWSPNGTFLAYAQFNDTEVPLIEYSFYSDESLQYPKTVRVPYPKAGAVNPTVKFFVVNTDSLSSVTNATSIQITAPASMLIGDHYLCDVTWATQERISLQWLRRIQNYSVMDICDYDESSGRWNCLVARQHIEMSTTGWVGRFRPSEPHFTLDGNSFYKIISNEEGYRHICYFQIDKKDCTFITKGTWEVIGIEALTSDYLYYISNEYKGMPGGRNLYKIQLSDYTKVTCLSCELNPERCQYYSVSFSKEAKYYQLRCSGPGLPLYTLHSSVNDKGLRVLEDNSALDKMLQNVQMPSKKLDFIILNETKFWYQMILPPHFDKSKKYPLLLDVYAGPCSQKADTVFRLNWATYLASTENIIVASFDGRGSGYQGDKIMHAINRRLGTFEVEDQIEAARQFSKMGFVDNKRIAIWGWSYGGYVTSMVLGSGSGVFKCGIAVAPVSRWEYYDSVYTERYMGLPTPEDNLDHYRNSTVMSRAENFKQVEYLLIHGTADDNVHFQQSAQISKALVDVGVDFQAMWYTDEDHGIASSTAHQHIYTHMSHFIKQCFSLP
T1 sequence (P43220 24-463): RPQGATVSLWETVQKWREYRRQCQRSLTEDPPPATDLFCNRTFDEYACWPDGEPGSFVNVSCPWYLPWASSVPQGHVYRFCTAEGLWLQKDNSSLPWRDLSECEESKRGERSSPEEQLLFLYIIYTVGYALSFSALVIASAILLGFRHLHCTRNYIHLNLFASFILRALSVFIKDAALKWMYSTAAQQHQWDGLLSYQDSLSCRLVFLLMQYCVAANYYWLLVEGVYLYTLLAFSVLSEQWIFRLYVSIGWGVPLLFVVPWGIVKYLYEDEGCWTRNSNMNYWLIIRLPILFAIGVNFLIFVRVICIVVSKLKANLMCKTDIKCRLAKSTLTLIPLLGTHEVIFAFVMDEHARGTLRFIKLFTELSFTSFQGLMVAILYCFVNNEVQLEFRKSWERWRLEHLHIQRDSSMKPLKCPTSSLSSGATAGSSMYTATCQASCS

| SMILES | EC50 (human GLP-1 receptor) | half-life ([1]; +0.001% BSA, read-out: T½ (+0.001% BSA)) | half-life ([1]; without BSA, read-out: T½ (÷BSA)) | In (concentration) of parent GLP-1 peptide drug ([1]; with BSA, time 1.0 minutes) | In (concentration) of parent GLP-1 peptide drug ([1]; with BSA, time 32 minutes) | In (concentration) of parent GLP-1 peptide drug ([1]; with BSA, time 60 minutes) | In (concentration) of parent GLP-1 peptide drug ([1]; with BSA, time 120 minutes) | In (concentration) of parent GLP-1 peptide drug ([1]; with BSA, time 183 minutes) | In (concentration) of parent GLP-1 peptide drug ([1]; with BSA, time 1440 minutes) | In (concentration) of parent GLP-1 peptide drug ([1]; without BSA, time 1.0 minutes) | In (concentration) of parent GLP-1 peptide drug ([1]; without BSA, time 32 minutes) | In (concentration) of parent GLP-1 peptide drug ([1]; without BSA, time 60 minutes) | In (concentration) of parent GLP-1 peptide drug ([1]; without BSA, time 120 minutes) | In (concentration) of parent GLP-1 peptide drug ([1]; without BSA, time 183 minutes) | In (concentration) of parent GLP-1 peptide drug ([1]; without BSA, time 1440 minutes) |
| --- | --- | --- | --- | --- | --- | --- | --- | --- | --- | --- | --- | --- | --- | --- | --- |
| CC[C@H](C)[C@H](NC(=O)[C@H](Cc1ccccc1)NC(=O)[C@H](CCC(=O)O)NC(=O)[C@H](CCCCNC(=O)COCCOCCNC(=O)COCCOCCNC(=O)CC[C@H](NC(=O)CCCCCCCCCOc1ccc(C(=O)O)cc1)C(=O)O)NC(=O)[C@H](C)NC(=O)[C@H](C)NC(=O)[C@H](CCC(N)=O)NC(=O)[C@H](CCC(=O)O)NC(=O)[C@H](CCC(=O)O)NC(=O)[C@H](CC(C)C)NC(=O)[C@H](Cc1ccc(O)cc1)NC(=O)[C@H](CCCCNC(=O)COCCOCCNC(=O)COCCOCCNC(=O)CC[C@H](NC(=O)CCCCCCCCCOc1ccc(C(=O)O)cc1)C(=O)O)NC(=O)[C@H](CO)NC(=O)[C@@H](NC(=O)[C@H](CC(=O)O)NC(=O)[C@H](CO)NC(=O)[C@@H](NC(=O)[C@H](Cc1ccccc1)NC(=O)[C@@H](NC(=O)CNC(=O)[C@H](CCC(=O)O)NC(=O)[C@H](C)NC(=O)[C@@H](O)Cc1c[nH]cn1)[C@@H](C)O)[C@@H](C)O)C(C)C)C(=O)N[C@@H](C)C(=O)N[C@@H](Cc1c[nH]c2ccccc12)C(=O)N[C@@H](CC(C)C)C(=O)N[C@H](C(=O)N[C@@H](CCC(N)=O)C(=O)NCC(=O)N[C@@H](CCCNC(=N)N)C(=O)NCC(=O)O)C(C)C [Example B2.3] ({Lactoyl(3-(imidazol-4-yl))}-AEGTFTSDVSK([AEEA-AEEA-γGlu-Decanoyl(10-(4-HOOC-PhO))])YLEEQAAK([AEEA-AEEA-γGlu-Decanoyl(10-(4-HOOC-PhO))])EFIAWLVQGRG-OH; C-terminus assumed) | 1300 pM | – | – | – | – | – | – | – | – | – | – | – | – | – | – |
| CC[C@H](C)[C@H](NC(=O)[C@H](Cc1ccccc1)NC(=O)[C@H](CCC(=O)O)NC(=O)[C@H](CCCNC(=N)N)NC(=O)[C@@H](NC(=O)[C@H](C)NC(=O)[C@H](CCC(N)=O)NC(=O)[C@H](CCC(=O)O)NC(=O)[C@H](CCC(=O)O)NC(=O)[C@H](CC(C)C)NC(=O)[C@H](Cc1ccc(O)cc1)NC(=O)[C@H](CCCCNC(=O)COCCOCCNC(=O)COCCOCCNC(=O)CC[C@H](NC(=O)CCCCCCCCCOc1ccc(C(=O)O)cc1)C(=O)O)NC(=O)[C@H](CO)NC(=O)[C@@H](NC(=O)[C@H](CC(=O)O)NC(=O)[C@H](CO)NC(=O)[C@@H](NC(=O)[C@H](Cc1ccccc1)NC(=O)[C@@H](NC(=O)CNC(=O)[C@H](CCC(=O)O)NC(=O)[C@H](C)NC(=O)[C@@H](O)Cc1c[nH]cn1)[C@@H](C)O)[C@@H](C)O)C(C)C)C(C)C)C(=O)N[C@@H](C)C(=O)N[C@@H](CCCCNC(=O)COCCOCCNC(=O)COCCOCCNC(=O)CC[C@H](NC(=O)CCCCCCCCCOc1ccc(C(=O)O)cc1)C(=O)O)C(=O)N[C@@H](CC(C)C)C(=O)N[C@H](C(=O)N[C@@H](CCCNC(=N)N)C(=O)NCC(=O)N[C@@H](CCCNC(=N)N)C(=O)NCC(=O)O)C(C)C [Example B2.1] ({Lactoyl(3-(imidazol-4-yl))}-AEGTFTSDVSK([AEEA-AEEA-γGlu-Decanoyl(10-(4-HOOC-PhO))])YLEEQAVREFIAK([AEEA-AEEA-γGlu-Decanoyl(10-(4-HOOC-PhO))])LVRGRG-OH) | 100 pM | 38.5 h | 57.8 h | 4.61 | 4.61 | 4.58 | 4.40 | 4.58 | 4.47 | 4.61 | 4.59 | 4.63 | 4.50 | 4.64 | 4.45 |
